From patent US6897319B2, “Useful aroyl pyrrole heteroaryl methanones and methanols” (Ortho-McNeil Pharmaceutical, Inc., priority 2001, dated 2005)
Marks after values point to notes of the source that are not given here.

Tests used:
[1] = tested on: mechanical allodynia after L5 spinal nerve ligation; test: Chung Model (spinal nerve ligation) antiallodynic effect; format: in vivo; conditions: rat; for % MPE in the Chung Model: oral, screening dose (not given)
Text: Procedure for Testing Antiallodynic Effect
The procedure used to detect the antiallodynic effect of a compound of the present invention for which there is a good correlation with human efficacy for the treatment of pain is the procedure for the measurement of allodynia found in the Chung Model (Kim S. H. and Chung J. M., An Experimental Model for Peripheral Neuropathy Produced by Segmental Spinal Nerve Ligation in the Rat, Pain, 1992, 50, 355-363). The antiallodynic effect of the composition of the present invention in the Chung Model is expressed in % MPE (Maximum Possible Effect).
Male Sprague-Dawley rats, weighing approximately 200 g each were anesthetized with isoflurane. The spinal nerve at the level of L5 was exposed through an incision just left of the dorsal midline and tightly ligated with 6-0 silk. At various times after surgery, animals were tested for mechanical allodynia with von Frey hairs (monofilaments which are calibrated to bend under a certain amount of pressure, ranging from 0.41 to 15.1 g). In order to calculate a paw withdrawal threshold (PWT), tactile allodynia was measured by recording the pressure at which the affected paw was withdrawn from graded stimuli according to the procedure of S. R. Chaplan, J. W. Pogrel, T. L. Yaksh, Role of Voltage-Dependent Calcium Channel Subtypes in Experimental Tactile Allodynia, J. Pharmacol. Exp. Ther., 1994, 269, 1117-1123. Normal rats can withstand at least 15 g of pressure without responding. Operated rats, however, can respond to as little as 0.25 g of pressure. The surgery was deemed successful if the animal responded with a PWT of less than 4 g of pressure applied to the affected paw. […] The PWT was used to calculate the % maximal possible effect (% MPE) according to the formula: %MPE=100×[(PWT−CT)/(CO−CT)]; wherein PWT is defined as Paw Withdrawal Threshold, CT is Control Threshold, and CO is Cut Off (defined as 15 g).
The sham operation consisted of a similar surgery; the spinal nerve was visualized without being ligated.
Compounds selected from Formula (I) and Formula (II) were tested for activity in treating or modulating neuropathic pain by being dissolved or suspended in either water or hydroxypropyl methylcellulose, respectively. Postoperative animals between 14 to 42 days were fasted overnight prior to dosing. Animals were orally dosed and dosage volumes were calculated on a 4 mL/kg basis.

[2] = tested on: voltage-gated sodium channels; test: Fluorometric membrane potential assay in SK-N-SH cells (veratridine stimulus, FLIPR); format: cell-based; conditions: 10 μM compound, 5 μM veratridine
Description: Screening Assay for Voltage-Gated Sodium Channel Antagonists Fluorometric Membrane Potential Assay
(§1) SK-N-SH neuroblastoma cells were maintained in a propagation medium containing modified Eagle's medium and 10% (v/v) fetal bovine serum and were incubated at 37° C. in a 5% CO2 atmosphere. Only cells with fewer than 20 passages were used in each assay. All drugs were prepared in DMSO, and the final concentration of solvent was less than 0.1% (v/v). Veratridine, a toxin that selectively promotes persistent activation of voltage-gated sodium channels, served as the stimulus. 24 hr prior to testing, 1×10^5 cells/well were plated into 96-well plates specifically designed for use in a fluorescent imaging plate reader (FLIPR) (Molecular Devices, Sunnyvale, Calif.)
Prior to screening, monolayers of cells were loaded with 100 μL/well of a proprietary voltage-sensitive dye (Molecular Devices, Sunnyvale, Calif.) for 30 min at 37° C. After this incubation period, the cells were stimulated with 5 μM veratridine in the presence or absence of investigational compounds (prepared at a final concentration of 10 μM in DMSO). A sample containing 5 μM veratridine and 10 μM tetrodotoxin accounted for nonspecific activity. The fluorescence was monitored by the FLIPR (Molecular Devices) from 10 sec prior to drug addition (50 μL) to 170 sec after drug addition at 25° C. During sodium channel activation, the cells depolarize and the dye associates with cell membranes, resulting in increased fluorescence.

[3] = tested on: voltage-gated sodium channels; test: [14C]guanidinium flux assay in SK-N-SH cells (veratridine stimulus); format: cell-based; conditions: 10 μM compound, 100 μM veratridine
Description: Screening Assay for Voltage-Gated Sodium Channel Antagonists [^14C] Guanidinium Flux Assay
as §1, with “stimulus.” for “stimulus. 24 hr prior to testing, 1×10^5 cells/well were plated into 96-well plates specifically designed for use in a fluorescent imaging plate reader (FLIPR) (Molecular Devices, Sunnyvale, Calif.)”
SK-N-SH cells were plated at 1×10^5 cells/well in 96-well Cytostar-T microscintillating plates in propagation medium and experiments were performed 6-7 days after plating. Prior to assay, the SK-N-SH cells were washed twice with assay buffer containing 50 mM HEPES (pH 7.45), 5.4 mM potassium chloride, 0.8 mM magnesium chloride, 130 mM choline chloride, 5.5 mM glucose and 0.1 mg/mL bovine serum albumin. Next, the plates were allowed to equilibrate for 10 min at 37° C. in assay buffer. After this incubation period, the cells were stimulated with 100 μM veratridine in the presence or absence of investigational compounds prepared in a 96-well plate (prepared at a final concentration of 10 μM in DMSO). The 96-well dosing plate was prepared by mixing 25 μL of a drug/assay buffer solution per well with 25 μL of 0.7 μCi/mL [^14C]guanidine hydrochloride in assay buffer. 50 μL aliquots from the dosing plate were then added to the cells. One sample containing 100 μM veratridine and 10 μM tetrodotoxin accounted for nonspecific activity. The plates were incubated for 1 hr at room temperature and the radioactivity was counted in a 1450 Microbeta scintillation counter.

[4] = tested on: maximal electroshock extensor seizure; test: Mouse maximal electroshock test (MES) anticonvulsant model; format: in vivo; conditions: oral
Description: Procedure for Testing in Mouse Anticonvulsant Model
The activity of the present compounds as anticonvulsant agents was determined using a standard mouse “maximal electroshock test” (MES). In this test, activity was indicated by a block of the […] extensor seizure, as described by Swinyard, et al. (J. Pharmacol. Exptl. Therap., 1952, 106, 319). A more recent description of current anticonvulsant drug screening is given in Swinyard, et al., in Epilepsia, 1978, 19, 409.
The anticonvulsant activity of the instant compounds is shown in Table 5 and was evaluated according to the Swinyard (1952) method. The abbreviations used in the table have the following meanings: mpk refers to the dose orally administered in “mg per Kg;” and, ED50 refers to the “50% Effective Dose” orally administered in mpk. The values marked by an * represent the number of mice protected/number of mice tested; therefore, a value of 3/3 represents that the number of mice protected matched the number of mice tested at the indicated dose.

Compound	% MPE in the Chung Model [1]	% FI at 10 μM (% fluorescence inhibition) [2]	% GFI at 10 μM (% guanidinium flux inhibition) [3]	MES Response, number of mice protected/number of mice tested ([4]; @ 300 mpk)	ED50 ([1]; po, orally administered)	MES Response, number of mice protected/number of mice tested ([4]; @ 100 mpk)	ED50 in the Chung Model ([1]; orally administered)	MES Response, number of mice protected/number of mice tested ([4]; @ 30 mpk)
Cn1cc(C(=O)c2ccncc2)cc1C(=O)c1ccccc1 [Cpd 2, (5-Benzoyl-1-methyl-1H-pyrrol-3-yl)pyridin-4-ylmethanone]	7%	76%	–	–	–	–	–	–
Cn1cc(C(=O)c2ccc3ccccc3c2)cc1C(=O)c1cccnc1 [Cpd 8, [1-Methyl-5-(pyridine-3-carbonyl)-1H-pyrrol-3-yl]naphthalen-2-yl-methanone]	1.3%	67%	82%	0/1* @ 300 mpk	–	–	–	–
Cl.Cn1cc(C(=O)c2ccc(F)cc2)cc1C(=O)c1cccnc1 [Cpd 7, (4-Fluorophenyl)-[1-methyl-5-(pyridine-3-carbonyl)-1H-pyrrol-3-yl]methanone Hydrochloride]	–	45%	57%	–	22 mg/kg	2/3* @ 100 mpk	–	–
Cn1cc(C(=O)c2ccc(F)cc2)cc1C(=O)c1ccncc1 [Cpd 11, (4-Fluorophenyl)-[1-methyl-5-(pyridine-4-carbonyl)-1H-pyrrol-3-yl]methanone]	10%	39%	–	0/1* @ 300 mpk	–	–	–	–
Cn1cc(C(O)c2cc[n+]([O-])cc2)cc1C(=O)c1ccc(Cl)cc1 (stereo not drawn) [Cpd 16, (4-Chlorophenyl)-{4-[hydroxy-(1-oxy-pyridin-4-yl)methyl]-1-methyl-1H-pyrrol-2-yl}methanone]	–	29%	–	–	–	–	ED50 = 29 mpk	–
Cn1cc(C(O)c2ccncc2)cc1C(=O)c1ccc(Cl)cc1 (stereo not drawn) [Cpd 12, (4-Chlorophenyl)-[4-(hydroxypyridin-4-yl-methyl)-1-methyl-1H-pyrrol-2-yl]-methanone]	3.7%	60%	–	–	–	–	–	–
Cl.Cn1cc(C(=O)c2ccncc2)cc1C(=O)c1cccs1 [Cpd 4, [1-Methyl-5-(thiophene-2-carbonyl)-1H-pyrrol-3-yl]pyridin-4-ylmethanone hydrochloride]	–	49%	–	0/1* @ 300 mpk	–	–	–	–
Cn1cc(C(=O)c2ccc(F)cc2)cc1C(=O)c1ccccn1 [Cpd 10, (4-Fluorophenyl)-[1-methyl-5-(pyridine-2-carbonyl)-1H-pyrrol-3-yl]methanone]	11%	60%	46%	0/1* @ 300 mpk	–	–	–	–
Cn1cc(C(=O)c2cc[n+](C)cc2)cc1C(=O)c1ccc(Cl)cc1.O.O=S(=O)([O-])C(F)(F)F [Cpd 14, 4-[[5-(4-Chlorobenzoyl)-1-methyl-1H-pyrrol-3-yl]carbonyl]-1-methylpyridinium trifluoromethanesulfonate hydrate [5:1]]	–	54%	14%	–	–	–	–	–
Cn1cc(C(=O)c2cnc[nH]2)cc1C(=O)c1ccc(Cl)cc1 [Cpd 13, (4-Chlorophenyl)-[4-(3H-imidazole-4-carbonyl)-1-methyl-1H-pyrrol-2-yl]methanone]	–	62%	24%	–	–	–	–	–
Cc1ccc(C(=O)c2cc(C(=O)c3ccncc3)cn2C)cc1.Cl [Cpd 3, [1-Methyl-5-(4-methylbenzoyl)-1H-pyrrol-3-yl]pyridin-4-ylmethanone Hydrochloride]	5%	45%	–	–	–	3/3* @ 100 mpk	–	–
Cn1cc(C(=O)c2ccccn2)cc1C(=O)c1ccc(Cl)cc1 [Cpd 6, [5-(4-Chlorobenzoyl)-1-methyl-1H-pyrrol-3-yl]pyridin-2-yl-methanone]	12%	25%	74%	–	–	–	–	1/1* @ 30 mpk
Cl.Cn1cc(C(=O)c2cccnc2)cc1C(=O)c1ccc(Cl)cc1.Cn1cc(C(=O)c2cccnc2)cc1C(=O)c1ccc(Cl)cc1.O [Cpd 5, [5-(4-Chlorobenzoyl)-1-methyl-1H-pyrrol-3-yl]pyridin-3-ylmethanone hydrochoride hydrate [2:1:1]]	9%	26%	55%	–	–	–	–	–
Cc1c(C(=O)c2ccc(F)cc2)c(C)n(C)c1C(=O)c1cccnc1 [Cpd 17, (4-Fluorophenyl)-[1,2,4-trimethyl-5-(pyridine-3-carbonyl)-1H-pyrrol-3-yl]methanone]	59%	15%	–	–	–	–	–	–
Cn1cc(C(=O)c2cc[n+]([O-])cc2)cc1C(=O)c1ccc(Cl)cc1 [Cpd 15, (4-Chlorophenyl)-[1-methyl-4-(1-oxypyridine-4-carbonyl)-1H-pyrrol-2-yl]methanone]	7.9%	40%	4%	–	–	–	–	–
Cn1cc(C(=O)c2ccc(Cl)cc2)cc1C(=O)c1ccc(Cl)nc1 [Cpd 9, (4-Chlorophenyl)-[5-(6-chloropyridine-3-carbonyl)-1-methyl-1H-pyrrol-3-yl]methanone]	5%	26%	31%	–	–	–	–	–
